This note sets out measurements from patent US8975400B2, “2,3-dihydroimidazo[1, 2-c] pyrimidin-5(1 H)-one compounds use as LP-PLA2 inhibitors” (Glaxo Group Limited, priority 2011, dated 2015).

Assay [1] concerns the target T1, recombinant human Lp-PLA2 (Homo sapiens, UniProt Q13093).
T1 sequence (Q13093 22-441): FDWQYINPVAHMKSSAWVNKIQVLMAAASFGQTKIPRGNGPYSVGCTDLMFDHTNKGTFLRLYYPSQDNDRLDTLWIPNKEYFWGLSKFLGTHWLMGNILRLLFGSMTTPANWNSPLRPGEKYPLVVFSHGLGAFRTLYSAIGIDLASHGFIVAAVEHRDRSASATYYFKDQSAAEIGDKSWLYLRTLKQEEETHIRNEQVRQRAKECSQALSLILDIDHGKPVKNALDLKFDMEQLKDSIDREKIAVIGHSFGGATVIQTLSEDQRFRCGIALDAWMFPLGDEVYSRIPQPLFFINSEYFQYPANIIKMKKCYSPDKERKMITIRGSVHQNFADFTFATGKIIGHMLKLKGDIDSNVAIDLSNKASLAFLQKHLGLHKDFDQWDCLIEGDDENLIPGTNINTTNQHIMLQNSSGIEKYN
The experiment in a line: Recombinant human Lp-PLA2 assay (rhLp-PLA2, PED6 assay). It is filed as biochemical. The following applies: recombinant human Lp-PLA2, PED6 substrate; upper limit for pIC50 in this assay is 9.3. The source says: (1) Recombinant Human Lp-PLA2 Assay (rhLp-PLA2) (Also Referred to as “PED6” Assay)
N-((6-(2,4-dinitrophenyl)amino)-hexanoyl)-2-(4,4-difluoro-5,7-dimethyl-4-bora-3a,4a-diaza-s-indacene-3-pentanoyl)-1-hexadecanoyl-sn-glycero-3-phosphoethanolamine, triethylammonium salt (PED6) is a commercially available fluorescently-labeled phospholipid, which is commercially available from Invitrogene and Molecular Probes. There is a quenching […] and a Bodipy fluorescein (FL) group in the sn2 position. Upon cleavage with Lp-PLA2, the Bodipy FL group is liberated and then may result in an increase in fluorescence. Inhibitors of Lp-PLA2 therefore prevent this cleavage and no fluorescent increase is observed.
The PED6 assay was run as an unquenched 10 μL assay. The source plate containing the compounds to be tested was prepared by making 1:3 (by volume) serial dilution of the compounds within DMSO on 384-well microplate. Then, 0.01 μL of the compounds on compound source plate were transferred into 384 well Greiner 784076 (black) plates using ECHO liquid dispenser. 5 µL of recombinant human Lp-PLA2 enzyme (4 nM (or 110 pM) rhLp-PLA2 in assay buffer of 50 mM HEPES, pH 7.4, 150 mM NaCl, 1 mM CHAPS) was added to each well of the plate. Plates were centrifuged for 10 sec at 500 rpm. After 30 minutes preincubation, 5 µL of substrate (4 μM (or 5 μM) PED6 [from 5 mM DMSO stock] in assay buffer of 50 mM HEPES, pH 7.4, 150 mM NaCl, 1 mM CHAPS) was added to 384 well Greiner 784076 (black) plates. Plates were centrifuged for 10 sec at 500 rpm. The plate was covered to protect it from light and incubated for 20 min at room temperature. The plates were read for fluorescence intensity at ex: 480/em: 540 using ViewLux microplate imager for Envision spectrofluroimeters pIC50 data, curve and QC analysis was conducted by using XL fit module in Excel.
The compounds described below were tested generally according to the PED6 assay described above.

A further assay has as its target T2, Lp-PLA2 in human plasma (Homo sapiens, UniProt Q13093).
T2 construct: This assay may detect the activity of Lp-PLA2 in human plasma; from tissue; host or cells: pooled human plasma
T2 sequence (Q13093 22-441): T1 sequence (Q13093 22-441)
Description: Lp-PLA2 human plasma assay (Thio-PAF assay). It is filed as biochemical. As to conditions: pooled human plasma, 2-thio-PAF substrate; read-out: pIC50 in the thio-PAF assay (converted). The source says: (3) Lipoprotein-Associated Phospholipase A2 (Lp-PLA2) Human Plasma Assay (Also Referred to as “Thio-PAF Assay”)
The human plasma assay utilizes a thioester analog of PAF (phosphatidylcholine), where hydrolysis yields to the formation of a phospholipid containing a free thiol group. The amount of thiol is quantitated continuously by reacting with CPM (7-diethylamino-3-(4′-maleimidylphenyl)-4-methylcoumarin), a maleimide which increases in fluoresence after Michael addition of thiols. This assay may detect the activity of Lp-PLA2 in human plasma, as determined by specific inhibition by Lp-PLA2 inhibitors.
The thio-PAF assay was run as a quenched 15 μL assay. Compounds source plate was prepared by making 1:3 (by volume) serial dilution of the compounds into pure DMSO on 384-well microplate. 0.01 μL of compounds on compound source plate were transferred to 384 well Greiner 784076 (black) low-volume plates by ECHO liquid dispenser. 8 μL pooled human plasma, which was previously aliquoted and frozen, was added. Plates were centrifuged for 10 sec at 500 rpm. After 30 minutes preincubation, 2 μL of substrate solution comprising 2.5 mM 2-thio-PAF [from ethanol stock], 32 μM CPM [from a DMSO stock] and 3.2 mM NEM (N-ethylmaleimide) [made fresh daily in DMSO] in assay buffer of 50 mM HEPES, pH 7.4, 150 mM NaCl, 1 mM CHAPS was added to 384 well Greiner 784076 (black) low-volume plates by BRAVO liquid handling station. After 2 mins, reaction was quenched with 5 μL of 5% aqueous trifluoroacetic acid (TFA). Plates were covered to protect from light and incubated for 40 min at room temperature. Plates were read at ex: 380/em: 485 using-Envision microplate reader. pIC50 data, curve and QC analysis was conducted by using XLFit module in Excel.

Molecules are shown by their SMILES. Counter-ions that a name gives are not always drawn. Where only a bound is given, the exact number is not on record here.

Regarding `N#Cc1cc(COc2cc3n(c(=O)n2)CCN3)ccc1Oc1ccc(C#N)c(C(F)(F)F)c1` [Example 88, 4-(2-cyano-4-(((5-oxo-1,2,3,5-tetrahydroimidazo[1,2-c]pyrimidin-7-yl)oxy)methyl)p-henolxy)-2-(trifluoromethyl)benzonitrile], the IC50 is 2 nM in assay [1] and at most 100 nM at Lp-PLA2 in human plasma.

On to `O=c1nc(OCc2ccc(Oc3ccc(Cl)c(C(F)(F)F)c3)cc2)cc2n1CCN2` [Example 89, 7-((4-(4-chloro-3-(trifluoromethyl)phenoxy)benzyl)oxy)-2,3-dihydroimidazo[1,2-c]pyrimidin-5(1H)-one], for which the IC50 in assay [1] is at most 10 nM; at Lp-PLA2 in human plasma it was at most 1000 nM.

In the case of `N#Cc1cc(COc2cc3n(c(=O)n2)CCN3)ccc1Oc1ccnc(C(F)(F)F)c1` [Example 91, 5-(((5-oxo-1,2,3,5-tetrahydroimidazo[1,2-c]pyrimidin-7-yl)oxy)methyl)-2-((2-(trifluoromethyl)pyridin-4-yl)oxy)benzonitrile], the IC50 in assay [1] is at most 10 nM; on Lp-PLA2 in human plasma, at most 100 nM.

`N#Cc1cc(COc2cc3n(c(=O)n2)CCN3)ccc1Oc1ccc(C(F)(F)F)nc1` [Example 93, 5-(((5-oxo-1,2,3,5-tetrahydroimidazo[1,2-c]pyrimidin-7-yl)oxy)methyl)-2-((6-(trifluoromethyl)pyridin-3-yl)oxy)benzonitrile, trifluoroacetic acid salt]: the IC50 was at most 10 nM in assay [1] and at most 100 nM at Lp-PLA2 in human plasma.

Turning to `CN1CCn2c1cc(OCc1ccc(Oc3ccnc(C(F)(F)F)c3)c(F)c1)nc2=O` [Example 94, 7-((3-fluoro-4-((2-(trifluoromethyl)pyridin-4-yl)oxy)benzyl)oxy)-1-methyl-2,3-dihydroimidazo[1,2-c]pyrimidin-5(1H)-one], the IC50 in assay [1] is 1.58 nM; on Lp-PLA2 in human plasma, at most 100 nM.

`CN1CCn2c1cc(OCc1ccc(Oc3ccc(C#N)c(F)c3)c(C#N)c1)nc2=O` [Example 95, 4-(2-cyano-4-(((1-methyl-5-oxo-1,2,3,5-tetrahydroimidazo[1,2-c]pyrimidin-7-yl)oxy)methyl)phenoxy)-2-fluorobenzonitrile]: the IC50 in assay [1] was 1.26 nM; at Lp-PLA2 in human plasma, at most 100 nM.

Take `N#Cc1cc(COc2cc3n(c(=O)n2)CCN3)ccc1Oc1ccc(Cl)c(C(F)(F)F)c1` [Example 96, 2-(4-chloro-3-(trifluoromethyl)phenoxy)-5-(((5-oxo-1,2,3,5-tetrahydroimidazo[1,2-c]pyrimidin-7-yl)oxy)methyl)benzonitrile]: the IC50 in assay [1] is at most 10 nM; on Lp-PLA2 in human plasma it was at most 100 nM.

Turning to `CN1CCn2c1cc(OCc1cc(F)c(Oc3cc(F)cc(F)c3)c(F)c1)nc2=O` [Example 99, 7-((4-(3,5-difluorophenoxy)-3,5-difluorobenzyl)oxy)-1-methyl-2,3-dihydroimida-zo[1,2-c]pyrimidin-5(1H)-one], the IC50 was at most 10 nM in assay [1] and at most 1000 nM on Lp-PLA2 in human plasma.

For the compound `CN1CCn2c1cc(OCc1ccc(Oc3ccc(Cl)nc3)c(C#N)c1)nc2=O` [Example 100, 2-((6-chloropyridin-3-yl)oxy)-5-(((1-methyl-5-oxo-1,2,3,5-tetrahydroimidazo[1,2-c]pyrimidin-7-yl)oxy)methyl)benzonitrile], the IC50 in assay [1] is at most 10 nM; on Lp-PLA2 in human plasma, at most 1000 nM.

Regarding `CN1CCn2c1cc(OCc1ccc(Oc3ccc(Cl)c(C(F)(F)F)c3)c(C#N)c1)nc2=O` [Example 101, 2-(4-chloro-3-(trifluoromethyl)phenoxy)-5-(((1-methyl-5-oxo-1,2,3,5-tetrahydro-imidazo[1,2-c]pyrimidin-7-yl)oxy)methyl)benzonitrile, trifluoroacetic acid salt], the IC50 was at most 1 nM in assay [1] and at most 100 nM on Lp-PLA2 in human plasma.

Take `CN1CCn2c1cc(OCc1cc(F)c(Oc3cccc(C(F)(F)F)c3)c(F)c1)nc2=O` [Example 102, 7-((3,5-difluoro-4-(3-(trifluoromethyl)phenoxy)benzyl)oxy)-1-methyl-2,3-dihydroimidazo[1,2-c]pyrimidin-5(1H)-one]: the figures for the IC50 (in assay [1]; on Lp-PLA2 in human plasma) were at most 1 nM and at most 100 nM, respectively.

`CN1CCn2c1cc(OCc1ccc(Oc3ccc(Cl)nc3)c(F)c1)nc2=O` [Example 103, 7-((4-((6-chloropyridin-3-yl)oxy)-3-fluorobenzyl)oxy)-1-methyl-2,3-dihydroimid-azo[1,2-c]pyrimidin-5(1H)-one, trifluoroacetic acid salt]: the figures for the IC50 (in assay [1]; on Lp-PLA2 in human plasma) were at most 10 nM and at most 100 nM, respectively.

Consider `CN1CCn2c1cc(OCc1cc(F)c(Oc3cccc(C#N)c3)c(F)c1)nc2=O` [Example 104, 3-(2,6-difluoro-4-(((1-methyl-5-oxo-1,2,3,5-tetrahydroimidazo[1,2-c]pyrimidin-7-yl)oxy)methyl)phenoxy)benzonitrile], for which the IC50 was at most 10 nM in assay [1] and at most 1000 nM at Lp-PLA2 in human plasma.

Turning to `CN1CCn2c1cc(OCc1ccc(Oc3ccnc(Cl)c3)c(C#N)c1)nc2=O` [Example 107, 2-((2-chloropyridin-4-yl)oxy)-5-(((1-methyl-5-oxo-1,2,3,5-tetrahydroimidazo[1,2-c]pyrimidin-7-yl)oxy)methyl)benzonitrile], the IC50 in assay [1] is at most 10 nM; at Lp-PLA2 in human plasma it was at most 1000 nM.

In the case of `CN1CCn2c1cc(OCc1ccc(Oc3ccnc(Cl)c3)c(F)c1)nc2=O` [Example 109, 7-((4-((2-chloropyridin-4-yl)oxy)-3-fluorobenzyl)oxy)-1-methyl-2,3-dihydroimidaz-o[1,2-c]pyrimidin-5(1H)-one], the IC50 in assay [1] was at most 10 nM; at Lp-PLA2 in human plasma, at most 1000 nM.

As for `CN1CCn2c1cc(OCc1ccc(Oc3cc(F)cc(F)c3)c(C#N)c1)nc2=O` [Example 111, 2-(3,5-difluorophenoxy)-5-(((1-methyl-5-oxo-1,2,3,5-tetrahydroimidazo[1,2-c]pyri-midin-7-yl)oxy)methyl)benzonitrile], the IC50 in assay [1] was at most 10 nM; on Lp-PLA2 in human plasma, at most 1000 nM.

`CN1CCn2c1cc(OCc1ccc(Oc3ccc(Cl)c(C#N)c3)c(C#N)c1)nc2=O` [Example 114, 2-chloro-5-(2-cyano-4-(((1-methy-5-oxo-1,2,3,5-tetrahydroimidazo[1,2-c]pyrimidin-7-yl)oxy)methyl)phenoxy)benzonitrile]: the IC50 in assay [1] is at most 10 nM; at Lp-PLA2 in human plasma, at most 100 nM.

As for `CN1CCn2c1cc(OCc1ccc(Oc3cccc(C#N)c3)c(F)c1)nc2=O` [Example E63, 3-(2-fluoro-4-(((1-methyl-5-oxo-1,2,3,5-tetrahydroimidazo[1,2-c]pyrimidin-7-yl)oxy)methyl)phenoxy)benzonitrile, trifluoroacetic acid salt], the IC50 in assay [1] was at most 10 nM.

On to `O=c1nc(OCc2cc(F)c(Oc3ccc(F)cc3)c(F)c2)cc2n1CCN2` [Example E74, 7-((3,5-difluoro-4-(4-fluorophenoxy)benzyl)oxy)-2,3-dihydroimidazo[1,2-c]pyrimidin-5(1H)-one], for which the IC50 in assay [1] is at most 10 nM.
